Measured values: patent US10640402B2, “Use of oxidizing and non-oxidizing biocides for control of bacteria tolerant to stabilized-oxidant treatment” (Ecolab USA Inc., priority 2012, dated 2020)

Columns and labels:
[1] = test system: Cl2-urea tolerant bacteria; test: Biocide screening against Cl2-urea tolerant bacteria (Table 4); format: cell-based
[2] = test system: Cl2-urea tolerant bacteria; test: Laboratory screening using process water treated with urea-stabilized chlorine (Table 5); format: cell-based; conditions: for control of Cl2-urea tolerant bacteria (in words): typical use rates, Table 5 screening
[3] = test system: urease-producing microorganisms; test: Antimicrobial screening of biocides for control of urease-producing microorganisms; format: cell-based
[4] = test system: process water microbial population (paper mill); test: Initial laboratory screening of paper mill process water treated with NaOCl, before the urea-stabilized chlorine program; format: cell-based; conditions: 5 ppm Cl2
Description: (§1) The process water stream of a paper mill was treated using a urea-stabilized chlorine program.
(§2) Process water samples were challenged with untreated process water (1% v/v) after the 4-hours samples were plated. […] In Table 1, preservation from urea-stabilized chlorine was observed prior to the application of this program to the mill water system and development of the tolerant population.

[5] = test system: microbial population tolerant to urea-stabilized chlorine; test: Repeat laboratory screening of process water after 10 months of urea-stabilized chlorine treatment; format: cell-based; conditions: 5 ppm Cl2
Description: as §1, §2

[6] = test system: urease; test: Chlorine residual (TRO) with and without urease enzyme; format: physicochemical; conditions: control without urease
[7] = 24-hour, challenged with untreated process water (1% v/v) after 4-hour plating

O=[N+]([O-])C(Br)(CO)CO [Bronopol]
CFU/mL, 24-hour ([1]; 25 ppm product): 1.0 × 10^5 CFU/mL | CFU/mL, 24-hour ([1]; 100 ppm product): 1.3 × 10^4 CFU/mL | control of Cl2-urea tolerant bacteria (in words) [2]: not effective

N#CC(Br)(Br)C(N)=O [Dibromonitrilopropionamide, dibromonitrilopropionamide]
control of urease-producing microorganisms (in words) [3]: effective control | CFU/mL, 24-hour ([1]; 25 ppm product): 4.2 × 10^3 CFU/mL | CFU/mL, 24-hour ([1]; 100 ppm product): <100 CFU/mL | CFU/mL, 1-hour ([2]; 25 ppm product): 1.4 × 10^5 CFU/mL | CFU/mL, 4-hour ([2]; 25 ppm product): 7.0 × 10^4 CFU/mL | CFU/mL, 24-hour ([2]; 25 ppm product): 3.0 × 10^4 CFU/mL | CFU/mL, 1-hour ([2]; 100 ppm product): 6.0 × 10^2 CFU/mL | CFU/mL, 4-hour ([2]; 100 ppm product): 2.0 × 10^2 CFU/mL | CFU/mL, 24-hour ([2]; 100 ppm product): 3.0 × 10^2 CFU/mL | control of Cl2-urea tolerant bacteria (in words) [2]: particularly effective

O=CCCCC=O [Glutaraldehyde, glutaraldehyde]
control of urease-producing microorganisms (in words) [3]: effective control | CFU/mL, 24-hour ([1]; 25 ppm product): 100 CFU/mL | CFU/mL, 24-hour ([1]; 100 ppm product): <100 CFU/mL | CFU/mL, 1-hour ([2]; 25 ppm product): 1.0 × 10^6 CFU/mL | CFU/mL, 4-hour ([2]; 25 ppm product): 8.5 × 10^3 CFU/mL | CFU/mL, 24-hour ([2]; 25 ppm product): 1.0 × 10^2 CFU/mL | CFU/mL, 1-hour ([2]; 100 ppm product): 1.0 × 10^2 CFU/mL | CFU/mL, 4-hour ([2]; 100 ppm product): 1.0 × 10^2 CFU/mL | CFU/mL, 24-hour ([2]; 100 ppm product): 2 × 10^2 CFU/mL | control of Cl2-urea tolerant bacteria (in words) [2]: particularly effective

[Na+].[O-]Cl [NaOCl, sodium hypochlorite]
control of urease-producing microorganisms (in words) [3]: also effective | CFU/mL, 24-hour ([1]; 2.5 ppm as Cl2): 5.1 × 10^5 CFU/mL | CFU/mL, 24-hour ([1]; 10.0 ppm as Cl2): <100 CFU/mL | CFU/mL, Initial Screening, 1-hour ([4]; 1-hour): 3.4 × 10^5 CFU/mL | CFU/mL, Initial Screening, 4-hour ([4]; 4-hour): 3.6 × 10^6 CFU/mL | CFU/mL, Initial Screening, 24-hour [4, 7]: 1.9 × 10^7 CFU/mL | CFU/mL, Repeat Screening, 1-hour ([5]; 1-hour): 2.8 × 10^6 CFU/mL | CFU/mL, Repeat Screening, 4-hour ([5]; 4-hour): 6.0 × 10^6 CFU/mL | CFU/mL, Repeat Screening, 24-hour [5, 7]: 3.6 × 10^7 CFU/mL | TRO (as ppm Cl2), 1-hour ([6]; 1-hour): 4.6 ppm Cl2 | TRO (as ppm Cl2), 4-hour ([6]; 4-hour): 4.5 ppm Cl2 | TRO (as ppm Cl2), 24-hour ([6]; 24-hour): 4.1 ppm Cl2 | CFU/mL, 1-hour ([2]; 2.5 ppm as Cl2): 1.9 × 10^5 CFU/mL | CFU/mL, 4-hour ([2]; 2.5 ppm as Cl2): 2.0 × 10^6 CFU/mL | CFU/mL, 24-hour ([2]; 2.5 ppm as Cl2): 1.0 × 10^7 CFU/mL | CFU/mL, 1-hour ([2]; 10.0 ppm as Cl2): 2.0 × 10^2 CFU/mL | CFU/mL, 4-hour ([2]; 10.0 ppm as Cl2): 2.0 × 10^2 CFU/mL | CFU/mL, 24-hour ([2]; 10.0 ppm as Cl2): 5.0 × 10^2 CFU/mL | control of Cl2-urea tolerant bacteria (in words) [2]: also effective, but was required at higher concentrations
